# Measurements reported in paper PMC12893000, “Structural basis of quinone sensing by the MarR-type repressor MhqR in Staphylococcus aureus” (mBio, 2025).
# Columns and labels:
# SaMhqR [1] = biological target: T1, SaMhqR (Staphylococcus aureus, UniProt W8U802); assay: ITC; type: binding
# T1 construct: gene ACR79_11795; full-length (144 amino acids), C-terminal His-tag, homodimer
# SaMhqR [2] = biological target: T1, SaMhqR; assay: crystal structure (co-crystallized with MHQ, oxidized to MBQ) and ITC; type: binding
# T1 sequence (W8U802 entry or part of it): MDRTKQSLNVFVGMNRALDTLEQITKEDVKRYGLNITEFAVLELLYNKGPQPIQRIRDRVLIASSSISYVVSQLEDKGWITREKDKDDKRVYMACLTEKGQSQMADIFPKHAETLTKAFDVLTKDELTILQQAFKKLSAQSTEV
Structure (SMILES),Kd (SaMhqR [1]) [µM],Kd (SaMhqR [2]) [µM]
"Cc1cc(O)ccc1O [MHQ, 2-methylhydroquinone]",~6,
"CC1=CC(=O)C=CC1=O [MBQ, 2-methylbenzoquinone]",,~3
